One data set deals with SKVLB. Description: Microculture tetrazolium assay. The data set is classed as cell-based. As to conditions: for VLB/OV3: IC50 ratio SKVLB/SKOV3; for pIC50: SKVLB.
Another data set has as its system T47D. Description: Microculture tetrazolium assay. It counts as cell-based.
The subject of another data set is LOX. In words: Microculture tetrazolium assay. It counts as cell-based. To be noted: read-out: IC50.
The next data set relates to Leukemia. Description: NCI assay, average per cancer type. To be noted: for CC50: 48 h, read-out: Average LOG10 LC50; for Average LOG10 LC50: Leukemia, 2880 min; for GI50: read-out: Average LOG10 GI50.
The subject of a further data set is NSC Lung. In words: NCI assay, average per cancer type. As to conditions: for CC50 / GI50: Homo sapiens; for CC50: 48 h, read-out: Average LOG10 LC50; for GI50: read-out: Average LOG10 GI50; for Average LOG10 LC50: NSC Lung, 2880 min.
Another data set deals with SC Lung. Description: NCI assay, average per cancer type. As to conditions: for GI50: read-out: Average LOG10 GI50; for Average LOG10 LC50: SC Lung, 2880 min.
The subject of another data set is Colon. In words: NCI assay, average per cancer type. As to conditions: for Average LOG10 LC50: Colon, 2880 min; for CC50 / GI50: Homo sapiens; for CC50: 48 h, read-out: Average LOG10 LC50; for GI50: read-out: Average LOG10 GI50.
The test system of the next data set is CNS. Description: NCI assay, average per cancer type. As to conditions: for GI50: read-out: Average LOG10 GI50.
For the next data set, the system named is Melanoma. Description: NCI assay, average per cancer type. As to conditions: for CC50 / GI50: Homo sapiens; for CC50: 48 h, read-out: Average LOG10 LC50; for GI50: read-out: Average LOG10 GI50; for Average LOG10 LC50: Melanoma, 2880 min.
In another data set the test system is Ovarian. Description: NCI assay, average per cancer type. As to conditions: for GI50: read-out: Average LOG10 GI50.
A further data set relates to Renal. Description: NCI assay, average per cancer type. To be noted: for CC50 / GI50: Homo sapiens; for CC50: 48 h, read-out: Average LOG10 LC50; for GI50: read-out: Average LOG10 GI50; for Average LOG10 LC50: Renal, 2880 min.
A further data set concerns solid tumors. In words: NCI assay, mean potency in solid tumors. As to conditions: for GI50: read-out: Average LOG10 GI50, Mean Potency in solid tumors; for Average LOG10 LC50, Mean Potency in solid tumors: 2880 min.
In a further data set the test system is tumor cell lines. In words: NCI sulforhodamine B assay, all cell lines. To be noted: Homo sapiens.
Another data set relates to MCF7/ADR. Description: Soft agar colony formation disk diffusion assay. The data set is classed as cell-based, human. As to conditions: 100 μg/DISK. From the text: (§1) A more elaborate version of this fundamental assay, the soft agar colony formation disk diffusion assay was used. This assay defines the relative activity of one particular drug versus a tumoral cell line type. The effect of the test drug against tumoral cells could be measured by its inhibitory capacity against colony formation after the delivery of the compound, in different concentrations on an filter disk(4). A modified technique of this assay was used in order to investigate the antiproliferative activity of candidate compounds. Tumoral cells from solid tumors and ascitic lines were plated separately in a two layer agar matrix. Cell lines to be tested were suspended in an upper layer of 0.4% Noble agar (Difco#00142-01) in RPMI-1066 (Gibco#3201875) at a yield varying between 10^4 to 2×10^5 cells per 60 mm Petri dish. Plating efficiency was determined for each line in order to achieve an optimal number of colonies per dish. Plates were examined before drug administration to confirm a uniform dispersion of single cells. The bottom layer consisted of 0.8% Noble agar, 0.8% Tryptic Soy Broth (difco#0037001)in CMRL-1066/Fischer's. The bottom layers were used within 2 and 9 days of preparation. Plated dishes (bottom layer of agar, upper layer of cells and administered drug were incubated in humidified atmosphere at 37° C., 5% CO2 for 10-20 days depending upon the time necessary to observe adequate colonies (defined as a cell aggregate of more than 50 cells) both control and drug inhibited. Drugs were administered on a paper filter disk (Whatman No. 1) of 6.5 mm diameter placed on the upper layer at 1/3 distance from the edge of the dish. The anti-clonogenic activity of the compounds was measured as the zone of inhibition from the disk edge to the most proximal colonies. This zone of inhibition was checked on an inverted microscope (40×) and was measured with a micrometer mounted in the eyepiece. The ocular micrometer was calibrated with a stage micrometer set for a particular combination of ocular and objective lenses. […] We made a modification of the initial technique by not plating a solid tumor and a leukemia simultaneously in the same Petri dish. Anti-clonogenic tests performed on leukemia cell line have helped in the discovery of the majority of current clinically used cytostatic drugs. Our tests on solid tumor lines (animal or human) may help define active compounds with solid tumor specificity. […] HUMAN TUMORS. […] LS180 (13) and BE1(14) were obtained from the Oncology Dept. of the Montreal General Hospital. […] Cell lines were routinely passaged twice a week by trypsinization and maintained in 25, or 75-sq. cm Falcon Plastic flasks at 37° C., 5% CO2 in humidified atmosphere. Both compounds were dissolved in DMSO (1 mg/100 ul) and brought to final volume (250 ul) with Millipore deionized sterile water. Further dilutions were made with […] volume of 25 ul of freshly prepared solution was placed on the filter disk and allowed to dry.
For orientation: A growth-free zone around the sample is the usual read-out of agar diffusion tests.

Another data set deals with MCF7. Description: Soft agar colony formation disk diffusion assay. To be noted: 100 μg/DISK. It counts as cell-based, human.
Text: as §1

Another data set deals with MATB.WT. In words: Soft agar colony formation disk diffusion assay. To be noted: 100 μg/DISK. It counts as cell-based, rat. The text has this:
(§2) A more elaborate version of this fundamental assay, the soft agar colony formation disk diffusion assay was used. This assay defines the relative activity of one particular drug versus a tumoral cell line type. The effect of the test drug against tumoral cells could be measured by its inhibitory capacity against colony formation after the delivery of the compound, in different concentrations on an filter disk(4). A modified technique of this assay was used in order to investigate the antiproliferative activity of candidate compounds. Tumoral cells from solid tumors and ascitic lines were plated separately in a two layer agar matrix. Cell lines to be tested were suspended in an upper layer of 0.4% Noble agar (Difco#00142-01) in RPMI-1066 (Gibco#3201875) at a yield varying between 10^4 to 2×10^5 cells per 60 mm Petri dish. Plating efficiency was determined for each line in order to achieve an optimal number of colonies per dish. Plates were examined before drug administration to confirm a uniform dispersion of single cells. The bottom layer consisted of 0.8% Noble agar, 0.8% Tryptic Soy Broth (difco#0037001)in CMRL-1066/Fischer's. The bottom layers were used within 2 and 9 days of preparation. Plated dishes (bottom layer of agar, upper layer of cells and administered drug were incubated in humidified atmosphere at 37° C., 5% CO2 for 10-20 days depending upon the time necessary to observe adequate colonies (defined as a cell aggregate of more than 50 cells) both control and drug inhibited. Drugs were administered on a paper filter disk (Whatman No. 1) of 6.5 mm diameter placed on the upper layer at 1/3 distance from the edge of the dish. The anti-clonogenic activity of the compounds was measured as the zone of inhibition from the disk edge to the most proximal colonies. This zone of inhibition was checked on an inverted microscope (40×) and was measured with a micrometer mounted in the eyepiece. The ocular micrometer was calibrated with a stage micrometer set for a particular combination of ocular and objective lenses. […] We made a modification of the initial technique by not plating a solid tumor and a leukemia simultaneously in the same Petri dish. Anti-clonogenic tests performed on leukemia cell line have helped in the discovery of the majority of current clinically used cytostatic drugs. Our tests on solid tumor lines (animal or human) may help define active compounds with solid tumor specificity. […] Murine tumors were maintained IN VIVO in order to diminish the selection of subpopulations of cells normally present in the heterogenous IN VIVO tumor. The actual drug sensitivity assay was done IN VITRO. For these experiments cells from freshly excised tumors or from ascitic fluids were maintained in RPMI-1066. Both compounds were dissolved in DMSO (1 mg/100 ul) and brought to final volume (250 ul) with Millipore deionized sterile water. Further dilutions were made with […] volume of 25 ul of freshly prepared solution was placed on the filter disk and allowed to dry.

Another data set has as its system MATB/ADR. In words: Soft agar colony formation disk diffusion assay. The data set is classed as cell-based, rat.
Text: as §2

A further data set concerns SKOV3. In words: Microculture tetrazolium assay. The data set is classed as cell-based. To be noted: Homo sapiens, SK-OV-3, SKOV3; read-out: IC50.
Where [1] appears, read: Homo sapiens, 48 h, read-out: Average LOG10 LC50.

Experimental findings from patent publication US5593970A, “Heterocyclic anthracycline analogs” (priority 1994, dated 1997) are described below.

pIC50: −log10 of the molar value. “And” between values parts separate entries of the source, which are not always exact repeats. Equal values may be shown once. Read-outs that look alike come from different tables or passages of the source.

The pIC50 is the negative decadic logarithm of the IC50, by convention in mol/L.

In the case of `COc1cccc2c1C(=O)c1c(O)c3c(c(O)c1C2=O)C[C@@](O)(C(=O)CO)C[C@@H]3O[C@H]1C[C@H](N)[C@H](O)[C@H](C)O1` [ADR, reference compound], in the data set with SKVLB (listed as Adriamycin), the VLB/OV3 was 82.63 and 121.5. Besides, the pIC50 in the data set on SKVLB was 5.33; with T47D (Homo sapiens), 7.12; in the data set on T47D (listed as Adriamycin) it was 7.14; in the data set on LOX, 7.36. The CC50 with Leukemia is 17400 nM; in the data set on NSC Lung, 9770 nM; in the data set on Colon, 13800 nM; with Melanoma, 2750 nM; with Renal, 13500 nM. Moreover, the “Average LOG10 LC50” value with Leukemia is listed as -4.76 ± 0.10 log molar; in the data set on NSC Lung, -5.01 ± 0.26 log molar; with SC Lung, -5.39 ± 0.18 log molar; with Colon it was -4.86 ± 0.27 log molar; in the data set on Melanoma, -5.56 ± 0.29 log molar; with Renal it was -4.87 ± 0.38 log molar. Moreover, the GI50 with Leukemia is 30.9 nM; with NSC Lung, 46.8 nM; with SC Lung (Homo sapiens), 53.7 nM; in the data set with Colon it was 245 nM; in the data set with CNS (Homo sapiens), 85.1 nM; in the data set on Melanoma, 120 nM. The GI50 was 282 nM in the data set with Ovarian (Homo sapiens), 182 nM with Renal and 117 nM in the data set with solid tumors (Homo sapiens). Also, the “Average LOG10 LC50, Mean Potency in solid tumors” value in the data set on solid tumors was -5.07 ± 0.28 log molar.
With `COC(=O)[C@H]1CC2=C(C(=O)c3cc4ccccc4cc3C2=O)[C@H](O[C@H]2C[C@H](NC(=O)C(F)(F)F)[C@H](O)[C@H](C)O2)O1` [BCH-670], the CC50 in the data set with Leukemia was over 100000 nM; in the data set on NSC Lung, 24000 nM; with SC Lung (setting [1]), 38900 nM; in the data set on Colon, 25100 nM; in the data set on CNS (setting [1]), 26300 nM; in the data set with Melanoma it was 20400 nM. Also, the CC50 was 39800 nM in the data set with Ovarian (setting [1]); 29500 nM in the data set with Renal; 26900 nM with solid tumors (Homo sapiens, 48 h, read-out: Average LOG10 LC50, Mean Potency in solid tumors); 29500 nM with tumor cell lines (48 h, read-out: Log10 LC50, Mean / MG-MID, all cell lines (converted)). In addition, the GI50 is 1660 nM in the data set with Leukemia; 3090 nM in the data set on NSC Lung; 3310 nM in the data set on SC Lung (Homo sapiens); 2040 nM with Colon; 3630 nM in the data set on CNS (Homo sapiens); 1780 nM in the data set with Melanoma. The GI50 in the data set with Ovarian (Homo sapiens) is 3800 nM; in the data set with Renal, 4370 nM; with solid tumors (Homo sapiens), 3020 nM; in the data set on tumor cell lines (read-out: Log10 GI50, Mean / MG-MID, all cell lines (converted)) it was 2750 nM. For the same compound, the IC100 with tumor cell lines (48 h, read-out: Log10 TGI, Mean / MG-MID, all cell lines) is 8.32 µM.
On to `CCOC(=O)C1Cc2c(OCC)c3c(c(O)c2C(O[C@H]2C[C@H](NC(=O)C(F)(F)F)[C@H](O)[C@H](C)O2)O1)C(=O)c1ccccc1C3=O` (stereo partly drawn) [BCH-705], for which the zone of inhibition stood at 35.5 ± 7.3 Zone Units in the data set with MCF7/ADR, 79.3 ± 8.6 Zone Units with MCF7, 259.2 ± 21.5 Zone Units with MATB.WT and 155.5 ± 4.3 Zone Units in the data set on MATB/ADR (100 μg/DISK). Moreover, the “cross resistance with adriamycin, MATB/ADR vs MATB.WT” value with MATB/ADR is listed as “no cross resistance with adriamycin”. Besides, the pIC50 with SKOV3 was 4.89; with SKVLB (read-out: IC50) it was 4.85. For the same compound, the VLB/OV3 with SKVLB came to 1.09.
`COc1cccc2c1C(=O)c1c(O)c3c(c(O)c1C2=O)C[C@@](O)(C(C)=O)C[C@@H]3O[C@H]1C[C@H](N)[C@H](O)[C@H](C)O1` [DNM, reference compound]: the CC50 in the data set with Leukemia was 50100 nM; with NSC Lung it was 8510 nM; in the data set with Colon it was 14800 nM; with Melanoma, 2290 nM; in the data set with Renal it was 16600 nM. The “Average LOG10 LC50” value in the data set with Leukemia was -4.30 ± 0.36 log molar; in the data set with NSC Lung, -5.07 ± 0.37 log molar; in the data set on SC Lung, -5.58 ± 0.09 log molar; in the data set on Colon it was -4.83 ± 0.37 log molar; in the data set with CNS (CNS, 2880 min), -5.08 ± 0.42 log molar; in the data set with Melanoma, -5.64 ± 0.17 log molar. The “Average LOG10 LC50” value in the data set on Ovarian (Ovarian, 2880 min) was -4.78 ± 0.20 log molar; in the data set on Renal, -4.78 ± 0.46 log molar. Further, the GI50 in the data set with Leukemia is 56.2 nM; in the data set with NSC Lung, 91.2 nM; in the data set on SC Lung (Homo sapiens), 72.4 nM; in the data set with Colon, 151 nM; in the data set on CNS (Homo sapiens), 91.2 nM; in the data set with Melanoma, 112 nM. Besides, the GI50 with Ovarian (Homo sapiens) is 138 nM; in the data set with Renal it was 162 nM; in the data set with solid tumors (Homo sapiens), 112 nM. Further, in the data set on solid tumors, the “Average LOG10 LC50, Mean Potency in solid tumors” value was -5.11 ± 0.34 log molar.
